Experimental data published in patent US9409952B2, “Peptide-compound cyclization method” (Chugai Seiyaku Kabushiki Kaisha, priority 2011, dated 2016).
Where two headings read alike, the source gives them in different places. Starred links: 1 amine or outer side, 2 acyl side, 3 side chain; linkers in the order of their positions; H or OH if unused. Positions of bridges follow the written chain, without caps; N, C: chain ends. Non-standard residues stand in square brackets, D forms with d. Residues, ends and D or L forms follow the SMILES beside them. *: point of attachment. NMePhe(3-Cl) = CN[C@@H](Cc1cccc(Cl)c1)C(=O)O; NMeF = CN[C@@H](Cc1ccccc1)C(=O)O; NMeI = CC[C@H](C)[C@H](NC)C(=O)O; NMeβAla = CN(CCC(=O)[*:2])[*:1]; NMeL = CN[C@@H](CC(C)C)C(=O)O; NMeV = CN[C@H](C(=O)O)C(C)C; NMeA = CN[C@@H](C)C(=O)O; Piperidide = C1CCN(*)CC1; dNMeA = CN[C@H](C)C(=O)O; β3hA = C[C@H](N)CC(=O)O; Sar = CNCC(=O)O; tBu = CC(C)(C)*

What was measured:
[1] = PAMPA (parallel artificial membrane permeability assay); type: in vitro ADME; settings: PAMPA
Summary of the method: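 Artificial membrane was 10% (w/v) egg lecithin plus 0.5% (w/v) cholesterol in dodecane on a PVDF filter. A 10 mM DMSO stock was added at 0.5% (v/v) to donor buffer (50 mM MOPSO, pH 6.5, 5.0% glycocholic acid). After 18 h at 37 °C, LC/MS or LC/UV gave donor and acceptor levels for Pe.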

[2] = Metabolic stability in human hepatic microsome; type: in vitro ADME; settings: microsomes
[3] = membrane permeation rate (Pe), 50 mM MOPSO buffer pH 6.5 with 5.0% glycocholic acid, 37° C., 18 hours, read-out: iPAMPA Pe
[4] = pH 7.4, human hepatic microsome, NADPH(+), read-out: CL NADPH(+)

SMILES | Papp at 18 hours, 50 µM ([1]; pH 6.5) [×10⁻⁶ cm/s] | microsomal CLint at 1 uM ([2]; human, pH 7.4, CL NADPH(+)) [µL/min/mg] | Papp at 18 hours, 50 µM [1, 3] [×10⁻⁶ cm/s] | microsomal CLint at 1 uM [2, 4] [µL/min/mg]
CC[C@H](C)[C@@H]1NC(=O)[C@H](C(C)C)N(C)C(=O)[C@H](CC(C)C)N(C)C(=O)[C@H](C)N(C)C(=O)[C@H]([C@@H](C)O)NC(=O)[C@H](Cc2ccccc2)N(C)C(=O)CCN(C)C(=O)C[C@@H](C(=O)N(C)[C@@H](Cc2ccccc2)C(=O)N(C)[C@@H](Cc2ccccc2)C(=O)N[C@@H](C)C(=O)N2CCCCC2)NC(=O)[C@H](C)N(C)C(=O)[C@H](CC(C)C)N(C)C1=O [DP-297] ([NMeβAla][NMeF]T[NMeA][NMeL][NMeV]I[NMeL][NMeA]D[NMeF][NMeF]A-Piperidide; lactam N-10) | 19 | 78 |  | 
CC(C)C[C@H]1C(=O)N(C)[C@@H](Cc2ccccc2)C(=O)N[C@@H](C)C(=O)N2CCC[C@H]2C(=O)N(C)[C@@H](CC(C)C)C(=O)N(C)[C@@H](Cc2ccccc2)C(=O)N(C)[C@@H](C(C)C)C(=O)N[C@H](C(=O)N2CCCCC2)CC(=O)N[C@H](C(C)C)C(=O)N[C@@H]([C@@H](C)O)C(=O)N(C)CC(=O)N1C [DP-66] ([dV]T[Sar][NMeL][NMeF]AP[NMeL][NMeF][NMeV]D-Piperidide; lactam N-11) | 19 | 69 |  | 
CC[C@H](C)[C@H](NC(=O)[C@H](CC(C)C)N(C)C(=O)CN(C)C(=O)[C@H](C)N(C)C(=O)[C@H](Cc1ccccc1)N(C)C(=O)[C@@H]1CC(=O)N[C@H](C(C)C)C(=O)N[C@@H](C(C)C)C(=O)N[C@@H]([C@@H](C)O)C(=O)N[C@@H](CC(C)C)C(=O)N[C@@H](Cc2ccccc2)C(=O)N(C)[C@@H](CC(C)C)C(=O)N(C)[C@@H](Cc2cccc(Cl)c2)C(=O)N1)C(=O)N1CCCCC1 [DP-924] ([dV]VTLF[NMeL][NMePhe(3-Cl)]D[NMeF][NMeA][Sar][NMeL]I-Piperidide; lactam N-8) |  |  | 0.1 | 19
CC[C@H](C)[C@H](NC(=O)[C@H](CC(C)C)N(C)C(=O)[C@@H](NC(=O)[C@H](Cc1ccccc1)N(C)C(=O)[C@@H]1CC(=O)N(C)CCC(=O)N(C)[C@@H](Cc2cccc(Cl)c2)C(=O)N[C@@H](CC(C)C)C(=O)N[C@@H]([C@@H](C)O)C(=O)N[C@@H](CC(C)C)C(=O)N[C@@H]([C@@H](C)CC)C(=O)N(C)[C@@H](CC(C)C)C(=O)N(C)[C@@H](CC(C)C)C(=O)N1)[C@@H](C)CC)C(=O)N1CCCCC1 [DP-941] ([NMeβAla][NMePhe(3-Cl)]LTLI[NMeL][NMeL]D[NMeF]I[NMeL]I-Piperidide; lactam N-9) |  |  | 0.1 | 49
CC(C)C[C@H]1C(=O)N(C)[C@@H](C)C(=O)N(C)[C@@H](C(C)C)C(=O)N[C@@H](C)C(=O)N[C@H](C(=O)N(C)[C@@H](Cc2ccccc2)C(=O)N(C)[C@@H](Cc2ccccc2)C(=O)N[C@@H](C)C(=O)N2CCCCC2)CC(=O)N(C)[C@H](C)C(=O)N(C)CC(=O)N[C@@H]([C@@H](C)O)C(=O)N(C)[C@@H](C)C(=O)N[C@@H](Cc2ccccc2)C(=O)N1C [DP-507] ([dNMeA][Sar]T[NMeA]F[NMeL][NMeA][NMeV]AD[NMeF][NMeF]A-Piperidide; lactam N-10) |  |  | 11 | 17
CC[C@H](C)[C@H]1C(=O)N[C@@H](COC(C)(C)C)C(=O)N[C@@H](C)CC(=O)N(C)[C@@H](C)C(=O)N(C)[C@@H](Cc2cccc(Cl)c2)C(=O)N(C)CC(=O)N(C)[C@@H](CC(C)C)C(=O)N[C@@H]([C@@H](C)O)C(=O)N(C)[C@@H](C)C(=O)N(C)[C@@H](CC(C)C)C(=O)N1C [DP-803] (cyclo([NMeA][NMeL][NMeI]S(tBu)[β3hA][NMeA][NMePhe(3-Cl)][Sar][NMeL]T)) |  |  | 28 | 85
CC[C@H](C)[C@@H]1NC(=O)[C@H](C)N(C)C(=O)[C@H]([C@@H](C)O)NC(=O)[C@H](C(C)C)N(C)C(=O)[C@@H](C)N(C)C(=O)C[C@H](C)NC(=O)[C@H](Cc2ccccc2)NC(=O)[C@H](C)NC(=O)[C@H](Cc2ccccc2)N(C)C1=O [DP-819] (cyclo(AF[β3hA][dNMeA][NMeV]T[NMeA]I[NMeF])) |  |  | 30 | 134
CC(C)C[C@H]1C(=O)N(C)[C@@H](Cc2ccccc2)C(=O)N[C@@H]([C@@H](C)O)C(=O)N(C)[C@@H](C)C(=O)N[C@@H](C(C)C)C(=O)N(C)[C@@H](CC(C)C)C(=O)N(C)[C@@H](CC(C)C)C(=O)N[C@H](C(=O)N(C)[C@@H](Cc2ccccc2)C(=O)N[C@@H](C)C(=O)N2CCCCC2)CC(=O)N(C)CCC(=O)N1C [DP-201] ([NMeβAla][NMeL][NMeF]T[NMeA]V[NMeL][NMeL]D[NMeF]A-Piperidide; lactam N-9) |  |  | 27 | 209
CC[C@H](C)[C@H](NC(=O)[C@@H]1CC(=O)N[C@@H](Cc2ccccc2)C(=O)N(C)[C@@H](CC(C)C)C(=O)N[C@@H](C)C(=O)N(C)[C@@H](CC(C)C)C(=O)N[C@@H](COC(C)(C)C)C(=O)N(C)[C@@H](CC(C)C)C(=O)N(C)[C@@H](CC(C)C)C(=O)N[C@@H]([C@@H](C)O)C(=O)N[C@@H](Cc2ccccc2)C(=O)N(C)[C@@H](Cc2ccccc2)C(=O)N(C)[C@@H](C)C(=O)N1)C(=O)N[C@H](C(=O)N1CCCCC1)[C@@H](C)CC [DP-953] (F[NMeL]A[NMeL]S(tBu)[NMeL][NMeL]TF[NMeF][NMeA]DII-Piperidide; lactam N-12) |  |  | 0.1 | 8
CC[C@H](C)[C@@H]1NC(=O)[C@H](CC(C)C)N(C)C(=O)[C@H](Cc2cccc(Cl)c2)N(C)C(=O)[C@H](Cc2ccccc2)NC(=O)[C@H](CC(C)C)N(C)C(=O)[C@H](C)N(C)C(=O)[C@H]([C@@H](C)O)NC(=O)[C@H](C)N(C)C(=O)C[C@@H](C(=O)N[C@H](C(=O)N(C)[C@@H](CC(C)C)C(=O)N(C)[C@@H](Cc2ccccc2)C(=O)N[C@H](C(=O)N2CCCCC2)[C@@H](C)CC)[C@@H](C)CC)NC(=O)[C@H](C(C)C)NC1=O [DP-946] ([NMeA]T[NMeA][NMeL]F[NMePhe(3-Cl)][NMeL]IVDI[NMeL][NMeF]I-Piperidide; lactam N-10) |  |  | 0.1 | 15
CC(C)C[C@H]1C(=O)N[C@@H]([C@@H](C)O)C(=O)N[C@@H](C)C(=O)N(C)[C@@H](Cc2ccccc2)C(=O)N[C@H](C(=O)N2CCCCC2)CC(=O)N(C)[C@@H](C)C(=O)N(C)[C@@H](CC(C)C)C(=O)N[C@@H](Cc2ccccc2)C(=O)N1C [DP-700] ([NMeA][NMeL]F[NMeL]TA[NMeF]D-Piperidide; lactam N-8) |  |  | 49 | 398
CC[C@H](C)[C@@H]1NC(=O)[C@H](Cc2ccccc2)N(C)C(=O)[C@H](CC(C)C)N(C)C(=O)[C@H](Cc2ccccc2)NC(=O)[C@H](C)N(C)C(=O)[C@H]([C@@H](C)O)NC(=O)[C@@H](C)N(C)C(=O)C[C@@H](C(=O)N2CCCCC2)NC(=O)[C@H](CC(C)C)N(C)C(=O)[C@H](C(C)C)N(C)C1=O [DP-434] ([dNMeA]T[NMeA]F[NMeL][NMeF]I[NMeV][NMeL]D-Piperidide; lactam N-10) |  |  | 38 | 166
CC(C)C[C@H]1C(=O)N(C)[C@@H](CC(C)C)C(=O)N[C@@H]([C@@H](C)O)C(=O)N(C)[C@@H](C)C(=O)N[C@H](C(=O)N(C)[C@@H](Cc2ccccc2)C(=O)N(C)[C@@H](Cc2ccccc2)C(=O)N[C@@H](C)C(=O)N2CCCCC2)CC(=O)N(C)CCC(=O)N(C)CC(=O)N(C)[C@@H](Cc2ccccc2)C(=O)N[C@@H](C)C(=O)N1C [DP-398] ([NMeβAla][Sar][NMeF]A[NMeL][NMeL]T[NMeA]D[NMeF][NMeF]A-Piperidide; lactam N-9) |  |  | 24 | 123
CC[C@H](C)[C@H](NC(=O)[C@H](C)N(C)C(=O)[C@H](CC(C)C)N(C)C(=O)[C@@H](NC(=O)[C@@H]1CC(=O)N(C)[C@@H](C)C(=O)N[C@@H]([C@@H](C)O)C(=O)N(C)[C@@H](Cc2ccccc2)C(=O)N[C@@H](C(C)C)C(=O)N2CCC[C@H]2C(=O)N(C)[C@@H](Cc2ccccc2)C(=O)N[C@@H](CC(C)C)C(=O)N(C)[C@@H](Cc2ccccc2)C(=O)N1)C(C)C)C(=O)N1CCCCC1 [DP-943] ([NMeA]T[NMeF]VP[NMeF]L[NMeF]DV[NMeL][NMeA]I-Piperidide; lactam N-9) | 0.1 | 7 |  | 
CC(C)C[C@@H]1NC(=O)[C@H](Cc2ccccc2)NC(=O)[C@H](CC(C)C)N(C)C(=O)[C@H](Cc2ccccc2)NC(=O)[C@@H](C)N(C)C(=O)C[C@H](C)NC(=O)[C@H](Cc2ccccc2)N(C)C(=O)CNC(=O)[C@H]([C@@H](C)O)NC(=O)[C@H](CC(C)C)NC1=O [DP-784] (cyclo(FLLTG[NMeF][β3hA][dNMeA]F[NMeL])) | 46 | 97 |  | 
CC[C@H](C)[C@@H]1NC(=O)[C@H](Cc2ccccc2)N(C)C(=O)[C@H](C(C)C)N(C)C(=O)[C@H](Cc2ccccc2)NC(=O)[C@H](CC(C)C)N(C)C(=O)[C@H](CC(C)C)NC(=O)[C@@H](C(C)C)NC(=O)C[C@@H](C(=O)N2CCCCC2)NC(=O)[C@H]([C@@H](C)O)NC(=O)[C@H](C)NC(=O)[C@H](C)N(C)C1=O [DP-230] ([dV]L[NMeL]F[NMeV][NMeF]I[NMeA]ATD-Piperidide; lactam N-11) |  |  | 44 | 31
CC[C@H](C)[C@H]1C(=O)N(C)[C@@H](CC(C)C)C(=O)N(C)[C@@H](Cc2ccccc2)C(=O)N[C@@H]([C@@H](C)O)C(=O)N(C)[C@@H](Cc2ccccc2)C(=O)N(C)[C@@H](CC(C)C)C(=O)N(C)[C@@H](C)C(=O)N[C@H](C(=O)N2CCCCC2)CC(=O)N[C@H](C)C(=O)N[C@@H](C)C(=O)N(C)[C@@H](CC(C)C)C(=O)N1C [DP-99] ([dA]A[NMeL][NMeI][NMeL][NMeF]T[NMeF][NMeL][NMeA]D-Piperidide; lactam N-11) | 56 | 52 |  | 
